Reference: ChEMBL document CHEMBL1122473, “Synthesis and antibacterial activity of some 3-[(alkylthio)methyl]quinoxaline 1-oxide derivatives” (1983)
Converted amounts (≈) assume the structure as drawn.

Assays:
Format in all cases: functional
[1] = test system: Salmonella enterica; assay: In vitro antibacterial activity under anaerobic conditions against Salmonella choleraesuis strain 58B242
[2] = test system: Streptococcus pyogenes; assay: In vitro antibacterial activity under anaerobic conditions against […] pyogenes strain 2C203
[3] = test system: Pasteurella multocida; assay: In vitro antibacterial activity under anaerobic conditions against Pasteurella multocida strain 59A004
[4] = test system: Escherichia coli; assay: In vitro antibacterial activity under anaerobic conditions against Escherichia coli strain 51A266
[5] = test system: Brachyspira hyodysenteriae; assay: In vitro antibacterial activity under anaerobic conditions against Treponema hyodysenteriae strain 94A002

Structure (SMILES)	MIC [1]	MIC [2]	MIC [3]	MIC [4]	MIC [5]
CC(=O)c1c(C[S+]([O-])CCO)nc2ccccc2[n+]1[O-] (configuration not stated)	6.25 µg/mL (≈ 21.2 µM)	25 µg/mL (≈ 84.9 µM)	3.12 µg/mL (≈ 10.6 µM)	25 µg/mL (≈ 84.9 µM)	–
CC(=O)c1c(CS(=O)(=O)CCO)nc2ccccc2[n+]1[O-]	50 µg/mL (≈ 161 µM)	6.25 µg/mL (≈ 20.1 µM)	1.56 µg/mL (≈ 5.03 µM)	25 µg/mL (≈ 80.6 µM)	3.12 µg/mL (≈ 10.1 µM)
COC(=O)c1c(CS(C)(=O)=O)nc2ccccc2[n+]1[O-]	6.25 µg/mL (≈ 21.1 µM)	3.12 µg/mL (≈ 10.5 µM)	0.78 µg/mL (≈ 2.63 µM)	3.12 µg/mL (≈ 10.5 µM)	1.56 µg/mL (≈ 5.26 µM)
CC(=O)c1c(CS(C)(=O)=O)nc2ccccc2[n+]1[O-]	12.5 µg/mL (≈ 44.6 µM)	1.56 µg/mL (≈ 5.57 µM)	0.78 µg/mL (≈ 2.78 µM)	12.5 µg/mL (≈ 44.6 µM)	0.19 µg/mL (≈ 0.678 µM)
COC(=O)c1c(CS(=O)(=O)CCO)nc2ccccc2[n+]1[O-]	25 µg/mL (≈ 76.6 µM)	0.78 µg/mL (≈ 2.39 µM)	1.56 µg/mL (≈ 4.78 µM)	6.25 µg/mL (≈ 19.2 µM)	1.56 µg/mL (≈ 4.78 µM)
CS(=O)(=O)Cc1nc2ccccc2[n+]([O-])c1C#N	> 200 µg/mL	25 µg/mL (≈ 95 µM)	200 µg/mL (≈ 760 µM)	> 200 µg/mL	–
CNC(=O)c1c(CS(=O)(=O)CCO)nc2ccccc2[n+]1[O-]	25 µg/mL (≈ 76.8 µM)	6.25 µg/mL (≈ 19.2 µM)	3.12 µg/mL (≈ 9.59 µM)	6.25 µg/mL (≈ 19.2 µM)	12.5 µg/mL (≈ 38.4 µM)
CCS(=O)(=O)Cc1nc2ccccc2[n+]([O-])c1C(=O)NC	25 µg/mL (≈ 80.8 µM)	12.5 µg/mL (≈ 40.4 µM)	6.25 µg/mL (≈ 20.2 µM)	12.5 µg/mL (≈ 40.4 µM)	6.25 µg/mL (≈ 20.2 µM)
CS(=O)(=O)Cc1nc2ccccc2[n+]([O-])c1C(N)=O	3.12 µg/mL (≈ 11.1 µM)	0.78 µg/mL (≈ 2.77 µM)	1.56 µg/mL (≈ 5.55 µM)	1.56 µg/mL (≈ 5.55 µM)	6.25 µg/mL (≈ 22.2 µM)
CCS(=O)(=O)Cc1nc2ccccc2[n+]([O-])c1C(C)=O	50 µg/mL (≈ 170 µM)	1.56 µg/mL (≈ 5.3 µM)	6.25 µg/mL (≈ 21.2 µM)	25 µg/mL (≈ 84.9 µM)	0.78 µg/mL (≈ 2.65 µM)
CC(=O)c1c(C[S+](C)[O-])nc2ccccc2[n+]1[O-] (configuration not stated)	25 µg/mL (≈ 94.6 µM)	6.25 µg/mL (≈ 23.6 µM)	3.12 µg/mL (≈ 11.8 µM)	25 µg/mL (≈ 94.6 µM)	6.25 µg/mL (≈ 23.6 µM)
COC(=O)N/N=C/c1c[n+]([O-])c2ccccc2[n+]1[O-] [CARBADOX]	0.19 µg/mL (≈ 0.725 µM)	0.19 µg/mL (≈ 0.725 µM)	0.78 µg/mL (≈ 2.97 µM)	0.39 µg/mL (≈ 1.49 µM)	0.19 µg/mL (≈ 0.725 µM)
CS(=O)(=O)Cc1nc2ccccc2[n+]([O-])c1S(C)(=O)=O	25 µg/mL (≈ 79 µM)	6.25 µg/mL (≈ 19.8 µM)	3.12 µg/mL (≈ 9.86 µM)	25 µg/mL (≈ 79 µM)	> 25 µg/mL
CCCS(=O)(=O)Cc1nc2ccccc2[n+]([O-])c1C(C)=O	200 µg/mL (≈ 649 µM)	6.25 µg/mL (≈ 20.3 µM)	3.12 µg/mL (≈ 10.1 µM)	100 µg/mL (≈ 324 µM)	–
CNC(=O)c1c(CS(C)(=O)=O)nc2ccccc2[n+]1[O-]	6.25 µg/mL (≈ 21.2 µM)	6.25 µg/mL (≈ 21.2 µM)	0.78 µg/mL (≈ 2.64 µM)	3.12 µg/mL (≈ 10.6 µM)	3.12 µg/mL (≈ 10.6 µM)
